Results as given in ChEMBL document CHEMBL1129469, “Nonpeptide angiotensin II receptor antagonists: the next generation in antihypertensive therapy” (J Med Chem, 1996).
Residue numbers refer to the chain shown, from its start.

Experiments:
[1] = target: T1, Type-2 angiotensin II receptor (Rattus norvegicus, UniProt P35351); test: Inhibitory activity at Angiotensin II type 2 receptor.
T1 sequence (P35351 whole entry): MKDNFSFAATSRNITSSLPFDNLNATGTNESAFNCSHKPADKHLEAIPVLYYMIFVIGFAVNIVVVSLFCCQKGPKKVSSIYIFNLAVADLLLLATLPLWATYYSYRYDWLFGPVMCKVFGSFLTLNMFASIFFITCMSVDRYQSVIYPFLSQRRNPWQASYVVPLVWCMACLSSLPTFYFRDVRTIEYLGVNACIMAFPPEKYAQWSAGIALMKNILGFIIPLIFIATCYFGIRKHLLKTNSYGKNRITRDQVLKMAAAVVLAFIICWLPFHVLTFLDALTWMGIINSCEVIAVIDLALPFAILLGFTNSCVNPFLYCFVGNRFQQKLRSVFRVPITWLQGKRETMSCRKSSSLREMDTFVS

[2] = target: T2, Angiotensin II receptor (AT-1) type-1 (Rattus norvegicus, UniProt P29089+P25095); test: Inhibitory activity against Angiotensin II receptor, type 1; assay type: protein assay
T2 sequence (P29089 whole entry): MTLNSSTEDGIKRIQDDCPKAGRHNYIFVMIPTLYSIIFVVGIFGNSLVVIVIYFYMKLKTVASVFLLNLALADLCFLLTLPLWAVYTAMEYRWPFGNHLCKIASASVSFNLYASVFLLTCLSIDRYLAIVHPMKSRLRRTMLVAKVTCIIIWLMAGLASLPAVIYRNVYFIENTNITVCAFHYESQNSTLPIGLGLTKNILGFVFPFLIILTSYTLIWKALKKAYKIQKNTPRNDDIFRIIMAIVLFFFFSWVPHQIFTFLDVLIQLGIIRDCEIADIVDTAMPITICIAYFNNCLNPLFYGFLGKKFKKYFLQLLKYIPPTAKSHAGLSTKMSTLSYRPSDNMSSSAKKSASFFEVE
T2 sequence (P25095 whole entry): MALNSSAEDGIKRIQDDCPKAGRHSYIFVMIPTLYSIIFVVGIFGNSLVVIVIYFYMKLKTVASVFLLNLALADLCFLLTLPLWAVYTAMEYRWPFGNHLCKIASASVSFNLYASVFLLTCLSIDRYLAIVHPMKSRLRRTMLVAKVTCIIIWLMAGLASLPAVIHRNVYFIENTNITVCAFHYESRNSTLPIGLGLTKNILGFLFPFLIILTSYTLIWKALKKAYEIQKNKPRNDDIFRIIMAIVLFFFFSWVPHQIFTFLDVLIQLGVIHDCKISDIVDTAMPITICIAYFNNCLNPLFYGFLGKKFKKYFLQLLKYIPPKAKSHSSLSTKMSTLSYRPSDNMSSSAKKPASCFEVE

Rattus norvegicus [3] = organism: Rattus norvegicus; test: Oral effective dose required for lowering blood pressure in renal hypertensive rats (RHR); assay type: functional
[4] = Oral bioavailability in dog; assay type: ADME, organism-based, Canis lupus familiaris; settings: in vivo
[5] = Oral bioavailability in rat; assay type: ADME, organism-based; settings: in vivo
[6] = target: T2, Angiotensin II receptor (AT-1) type-1; test: Inhibitory activity against Angiotensin II receptor type 1 in rat adrenal membrane; assay type: cell membranes
Rattus norvegicus [7] = test: Intravenous effective dose required for lowering blood pressure in renal hypertensive rats (RHR); assay type: functional
[8] = target: T3, Type-2 angiotensin II receptor (Homo sapiens, UniProt P50052); test: Ki value was evaluated against Angiotensin II receptor, type 2
T3 sequence (P50052 whole entry): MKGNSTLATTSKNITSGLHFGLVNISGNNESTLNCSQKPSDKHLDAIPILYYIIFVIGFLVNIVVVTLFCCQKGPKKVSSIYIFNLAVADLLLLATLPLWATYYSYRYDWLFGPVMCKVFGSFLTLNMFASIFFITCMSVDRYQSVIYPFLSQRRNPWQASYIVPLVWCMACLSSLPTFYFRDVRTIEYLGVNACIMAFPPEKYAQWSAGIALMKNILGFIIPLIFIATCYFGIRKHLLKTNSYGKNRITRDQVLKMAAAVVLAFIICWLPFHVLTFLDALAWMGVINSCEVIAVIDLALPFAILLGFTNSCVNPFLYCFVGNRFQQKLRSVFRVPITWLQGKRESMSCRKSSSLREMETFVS

[9] = target: T4, Type-1 angiotensin II receptor (Homo sapiens, UniProt P30556); test: Ki value was evaluated against Angiotensin II receptor, type 1
T4 sequence (P30556 whole entry): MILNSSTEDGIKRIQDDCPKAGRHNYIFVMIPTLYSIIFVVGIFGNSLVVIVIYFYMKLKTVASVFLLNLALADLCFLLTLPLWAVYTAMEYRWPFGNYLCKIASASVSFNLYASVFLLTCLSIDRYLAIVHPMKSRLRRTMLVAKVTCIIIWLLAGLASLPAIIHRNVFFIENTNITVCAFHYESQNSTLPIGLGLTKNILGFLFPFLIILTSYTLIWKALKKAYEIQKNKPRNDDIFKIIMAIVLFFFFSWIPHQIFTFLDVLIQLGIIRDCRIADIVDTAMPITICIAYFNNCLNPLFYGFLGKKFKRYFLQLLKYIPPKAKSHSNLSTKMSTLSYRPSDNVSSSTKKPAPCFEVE

[10] = target: T2, Angiotensin II receptor (AT-1) type-1; test: Inhibitory activity against Angiotensin II receptor, type 1 in rat aortic membranes; assay type: cell membranes
[11] = target: T5, Type-1 angiotensin II receptor (Oryctolagus cuniculus, UniProt P34976); test: (§1) Inhibition of Angiotensin II receptor, type 1
T5 sequence (P34976 whole entry): T4 sequence (P30556 whole entry) with I2M, V49A, I254V, I270V, R272H, R311K, T349S, A353V

Oryctolagus cuniculus = organism: Oryctolagus cuniculus; test: Compound was tested for its antagonistic activity against angiotensin II-induced contractions in rabbit aorta; assay type: functional
[12] = target: T3, Type-2 angiotensin II receptor; test: Inhibition of Angiotensin II receptor, type 2
[13] = target: T4, Type-1 angiotensin II receptor; test: as §1
[14] = target: T2, Angiotensin II receptor (AT-1) type-1; test: In vitro antagonistic potency against Angiotensin II receptor, type 1 in rat liver; assay type: functional, tissue-based
[15] = target: T2, Angiotensin II receptor (AT-1) type-1; test: In vitro antagonistic potency against Angiotensin II receptor, type 1 in rat liver using [125I]-Sar1-Ile8-Ang II as radioligand; assay type: functional, tissue-based
[16] = target: T2, Angiotensin II receptor (AT-1) type-1; test: In vitro antagonistic potency against Angiotensin II receptor, type 1 in rat adrenal cortex; assay type: functional, tissue-based

CCCC(=O)N(CCC(=O)c1c(CC)nc(CCC)n1Cc1ccc(-c2ccccc2S(=O)(=O)NC(=O)OCCC(C)C)cc1F)c1cccnc1
IC50 [1]: 0.28 nM | IC50 ([2]; read-out: IC50): 0.26 nM | ED30 (Rattus norvegicus [3]): 0.27 mg/kg

CCCc1nc(CC)c(C(=O)O)n1Cc1ccc(-c2ccccc2-c2nn[nH]n2)cc1
bioavailability [4]: 13% | bioavailability [5]: 8% | IC50 [6]: 6 nM | ED30 (Rattus norvegicus [7]): 0.005 mg/kg | ED30 (Rattus norvegicus [3]): 0.03 mg/kg

CCCCc1nc2ccc(NC(=O)NC3CCCCC3)cc2n1Cc1ccc(-c2ccccc2C(=O)O)cc1
Ki [8]: 480 nM | Ki [9]: 29 nM | ED30 (Rattus norvegicus [7]): ~2 mg/kg

Cc1cc(Cn2cnc3c2C[C@@H](C(=O)O)N(C(=O)C(c2ccccc2)c2ccccc2)C3)ccc1N(C)C.O=C(O)C(F)(F)F.O=C(O)C(F)(F)F
IC50 [2]: > 100000 nM

CCCCc1nc2cccnc2n1Cc1ccc(-c2ccccc2-c2nnn[nH]2)cc1
IC50 [10]: 0.6 nM

CCCc1ccc(-c2nnn[nH]2)c(-c2ccc(Cn3c(CC)nc4c(C)cc(C)nc43)cc2)c1
IC50 [1]: 2 nM | IC50 [11]: 0.3 nM

CCc1nc2c(C)cc(C)nc2n1Cc1ccc2c(ccn2C(=O)c2cccc(-c3nn[nH]n3)c2)c1
IC50 [1]: 130 nM | IC50 [11]: 5 nM

CCCc1nc2c(C)c(NC(=O)c3ccccc3)cnc2n1Cc1ccc(-c2ccccc2S(=O)(=O)NC(=O)OCCC(C)C)cc1
bioavailability [4]: 34% | bioavailability [5]: 45% | IC50 [1]: 0.29 nM | IC50 ([2]; read-out: IC50): 0.24 nM

CCc1nc2c(C)cc(CO)nc2n1Cc1ccc2oc(-c3ccccc3NS(=O)(=O)C(F)(F)F)c(Br)c2c1
pKB (Oryctolagus cuniculus): 8.6

CCCCc1nc(Cl)c(CC(=O)O)n1Cc1ccc(C(=O)O)cc1
ED30 (Rattus norvegicus [7]): 10 mg/kg

CCCc1ccc2c(c1)-c1ccc(cc1)Cn1c(CCC)nc3ccc(cc3c1=O)NCCCCCCC(=O)NS2(=O)=O
IC50 [12]: 24 nM | IC50 [13]: 4 nM

CCCCc1nc(Cl)c(CO)n1Cc1ccc(-c2ccccc2C(=O)O)cc1
ED30 (Rattus norvegicus [3]): 3.7 mg/kg

CCCCOC(=O)NS(=O)(=O)c1sc(CC(C)C)cc1-c1ccc(Cn2c(CC)nc3c(C)cc(C)nc32)cc1
IC50 [13]: 1.1 nM

CCCCOC(=O)NS(=O)(=O)c1ccc(Cc2cccc(OC)c2)cc1-c1ccc(Cn2c(CC)nc3c(C)cc(C)nc32)cc1
IC50 [13]: 1.4 nM

O=C(O)[C@@H]1Cc2cc(-c3ccccc3)ccc2CN1C(=O)C(c1ccccc1)c1ccccc1
IC50 [1]: 30 nM | IC50 [2]: > 100000 nM

CCCc1nc(CC)c(C=O)n1Cc1ccc(-c2ccccc2-c2nn[nH]n2)cc1
IC50 [6]: 2.1 nM | ED30 (Rattus norvegicus [3]): 0.027 mg/kg

CCCc1nc(C(F)(F)C(F)(F)F)c(C(=O)O)n1Cc1ccc(-c2ccccc2-c2nn[nH]n2)cc1Br
IC50 ([2]; read-out: IC50): 3 nM

Cc1cc(Cn2cnc3c2C[C@@H](C(=O)O)N(C(=O)C(c2ccccc2)c2ccccc2)C3)ccc1N
IC50 [13]: > 100000 nM

CCCc1nc(CC)c(C(=O)OC)n1Cc1ccc(-c2ccccc2S(=O)(=O)NC(=O)OCCC(C)C)cc1F
IC50 [12]: 1 nM | IC50 [13]: 1 nM | ED50 (Rattus norvegicus [7]): 0.48 mg/kg | ED50 (Rattus norvegicus [3]): 0.67 mg/kg

COc1ccc(Cn2cnc3c2C[C@@H](C(=O)O)N(C(=O)C(c2ccccc2)c2ccccc2)C3)cc1C
IC50 [1]: 70 nM | IC50 [2]: > 100000 nM

O=C(O)c1c(Oc2ccc(-c3ccccc3-c3nn[nH]n3)cc2)c(C2CC2)nc2ccccc12
F [5]: 11% | Ki [14]: 2.9 nM | Kb (Oryctolagus cuniculus): 0.061 nM

CCc1nc(C2CC2)c(C(N)=O)n1Cc1ccc2oc(-c3ccccc3NS(=O)(=O)C(F)(F)F)c(Br)c2c1
Log Ki [15]: -9.3 | pKB (Oryctolagus cuniculus): 9

CCCCC(=O)Nc1ccc(Br)c(-n2nc(CC)n(Cc3ccc(-c4ccccc4S(=O)(=O)NC(=O)OC(C)(C)C)cc3F)c2=O)c1
IC50 [12]: 0.12 nM | IC50 [13]: 0.2 nM

CCCCCCC(C(=O)O)n1cnc(NC(=O)c2cccc(O)c2C(=O)O)c1 (stereo not drawn)
Ki [16]: 4400 nM | Kb (Oryctolagus cuniculus): 78 nM

CCc1nc2c(C)cc(C)nc2n1Cc1ccc(-c2ccccc2S(=O)(=O)NC(=O)C(c2ccccc2)c2ccccc2)cc1
IC50 [12]: 18 nM | IC50 [13]: 0.05 nM

CCCCOC(=O)NS(=O)(=O)c1ccc(CCC)cc1-c1ccc(Cn2c(CC)nc3c(C)cc(C)nc32)cc1
IC50 [12]: 6.1 nM | IC50 [13]: 1.5 nM

CCCCc1nc2ccn(CC(=O)N(c3ccccc3)c3ccccc3)c(=O)c2n1Cc1ccc(-c2ccccc2-c2nnn[nH]2)cc1
IC50 [1]: 300 nM

CCCc1nc(C(F)(F)C(F)(F)F)c(C(=O)O)n1Cc1ccc(-c2ccccc2-c2nn[nH]n2)cc1
IC50 [6]: 3.1 nM | ED30 (Rattus norvegicus [7]): 0.02 mg/kg | ED30 (Rattus norvegicus [3]): 0.21 mg/kg

CCCc1nc(CC)c(C=O)n1Cc1ccc(-c2ccccc2S(=O)(=O)NC(=O)c2ccccc2)cc1
IC50 [11]: 1.9 nM

CCCNC(=O)NS(=O)(=O)c1ccccc1-c1ccc(Cn2c(CCC)nc(SC)c2C(=O)O)cc1
IC50 [12]: 775 nM | IC50 [13]: 0.3 nM

Cc1ccnc2c1nc(C1CC1)n2Cc1ccc(-c2ccccc2C(=O)O)cc1
IC50 [10]: 52 nM

CCc1nc2ccc(NC(=O)N(C)C(C)C)cc2c(=O)n1Cc1ccc(-c2ccccc2S(=O)(=O)NC(=O)OCCC2CC2)cc1F
bioavailability [4]: 17% | bioavailability [5]: 23%

CCCc1nc(CC)c(C(=O)OCc2ccccc2C(=O)c2ccccc2)n1Cc1ccc(-c2ccccc2S(=O)(=O)NC(=O)OCCC(C)C)cc1F
IC50 [12]: 0.69 nM | IC50 [13]: 570 nM | ED30 (Rattus norvegicus [7]): 0.05 mg/kg | ED30 (Rattus norvegicus [3]): 0.9 mg/kg

CCCCc1nc(Cl)c(C(=O)O)n1Cc1ccc(-c2ccccc2-c2nn[nH]n2)cc1 [CARBOXYLIC ACID METABOLITE]
bioavailability [5]: 12% | ED30 (Rattus norvegicus [7]): 0.04 mg/kg | ED30 (Rattus norvegicus [3]): 0.66 mg/kg

CCCCc1nc2ccc(C(C)(C)OC)cc2c(=O)n1Cc1ccc(-c2ccccc2-c2nn[nH]n2)cc1 [CL-329167]
IC50 ([2]; read-out: IC50): 6 nM

CCCCc1nn(-c2ccccc2C(F)(F)F)c(=O)n1Cc1ccc(-c2ccccc2S(=O)(=O)NC(=O)c2ccccc2)cc1 [L-159913]
IC50 [1]: 450 nM

COc1ccc2c(c1OCc1ccccc1)C[C@@H](C(=O)O)N(C(=O)C(c1ccccc1)c1ccccc1)C2 [OLODANRIGAN]
IC50 [2]: > 100000 nM

CCCc1nc2c(n1Cc1ccc(-c3ccccc3-c3nnn[nH]3)cc1)C(=O)CCCC2 [PRATOSARTAN]
IC50 [10]: 0.8 nM

Cc1nc(C)c2c(n1)N(Cc1ccc(-c3ccccc3-c3nnn[nH]3)cc1)C(=O)CC2 [TASOSARTAN]
ED60 (Rattus norvegicus [3]): 0.58 mg/kg

CCCCc1nc(Cl)c(C(=O)O)n1Cc1ccc2oc(-c3ccccc3-c3nnn[nH]3)c(Br)c2c1 [ZOLASARTAN]
bioavailability [5]: 3% | Log Ki [15]: -9 | pKB (Oryctolagus cuniculus): 9.8
